Data as given in US9770026B2, “Substituted pyrimidine compound and uses thereof” (Shenyang Sinochem Agrochemicals R&D Co., Ltd., priority 2012, dated 2017).

Columns and labels:
armyworm = experiment: bioactivity test against armyworm, airbrush spray; assay type: in vivo; details: 600 ppm, mortality after 72 h
carmine spider mite = experiment: bioactivity test against carmine spider mite, airbrush spray; assay type: in vivo
Outline: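 Broadbean seedlings infested with adult mites were sprayed with compound (acetone/methanol stock diluted in 0.1% Tween 80 water) by airbrush at 0.7 kg/cm^2, 0.5 ml. Three replicates were run. Mortality was scored after 72 hrs.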

Diamond back moth = experiment: insecticidal activity against diamond back moth, airbrush spray; assay type: in vivo
Outline: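 Airbrush leaf-disc spray test: both faces of 2 cm cabbage discs received 0.5 ml of test solution at 0.7 kg/cm^2. Solutions were made in acetone:methanol (1:1) and brought to concentration with 0.1% Tween 80 in water. Ten second-instar larvae per disc, triplicates, were held at 25° C and 60˜70% R.H., with mortality recorded at 72 hrs.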

wheat powdery mildew = experiment: protectant activity in vivo against wheat powdery mildew; details: for protectant activity against wheat powdery mildew in vivo: 400 ppm
[1] = tested on: Green peach aphids (Myzus Persicae Sulzer); experiment: bioactivity test against green peach aphid, airbrush foliar spray; assay type: in vivo
Outline: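 Death rate was scored at 48 hrs, held at 25±1 C and 60±5% RH, following airbrush foliar spray (0.5 mL, 10 psi) onto cabbage leaf discs bearing about 15-30 aphids. Test solutions: compound dissolved in 1:1 acetone:methanol, brought to concentration with 0.1% tween 80 water.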

corn rust = experiment: protectant activity in vivo against corn rust
[2] = 100 ppm, mortality after 72 hrs
[3] = 100 ppm, death rate after 48 hrs
[4] = 600 ppm, death rate after 48 hrs
[5] = 600 ppm, mortality after 72 hrs
[6] = 10 ppm, death rate after 48 hrs

Cc1ncnc(NCCc2ccc(Oc3ccc(C(F)(F)F)cn3)cc2)c1Cl [Compound I-6729]
control (test results against armyworm) (armyworm): 100% | Insecticidal activity against carmine spider mite (% ) (carmine spider mite; 2.5 mg/L): 64% | Insecticidal activity against carmine spider mite (% ) (carmine spider mite; 5 mg/L): 78% | control against carmine spider mite (carmine spider mite; [2]): 100% | pest or weed control at 10 µg/mL (carmine spider mite; Tetranychus cinnabarinus, 72 h, 10 mg/L, contrastive test, read-out: Insecticidal activity against carmine spider mite (% )): 87% | pest or weed control at 100 µg/mL (carmine spider mite; Tetranychus cinnabarinus, 72 h, 100 mg/L, contrastive test, read-out: Insecticidal activity against carmine spider mite (% )): 100% | pest or weed control at 600 µg/mL (carmine spider mite; Tetranychus cinnabarinus, 72 h, 600 mg/L, contrastive test, read-out: Insecticidal activity against carmine spider mite (% )): 100% | pest or weed control at 600 ppm (carmine spider mite; Tetranychus cinnabarinus, 72 h, 600 ppm, mortality after 72 hrs): 100% | pest or weed control at 600 ppm (Diamond back moth; 72 h, 600 ppm, mortality after 72 hrs, read-out: control (test results against diamond back moth)): 100% | protectant activity against wheat powdery mildew in vivo (wheat powdery mildew): 100% | pest or weed control at 100 ppm (wheat powdery mildew; Triticum aestivum, 168 h, read-out: protectant activity against wheat powdery mildew in vivo, 100 ppm): 100% | control (test results against green peach aphid) [1, 3]: 100% | control (test results against green peach aphid) [1, 4]: 100% | pest or weed control at 10 ppm ([1]; Myzus persicae, foliar, 48 h, 10 ppm, death rate after 48 hrs): 100% | protectant activity against corn rust in vivo (corn rust; 25 ppm): 100% | protectant activity against corn rust in vivo (corn rust; 400 ppm): 100% | pest or weed control at 100 ppm (corn rust; Zea mays, 168 h, read-out: protectant activity against corn rust in vivo, 100 ppm): 100%

Cc1ncnc(NCCc2ccc(Oc3ccc(C(F)(F)F)cn3)cc2)c1Cl [Compound I-6731]
pest or weed control at 600 ppm (armyworm; 72 h): 100% | control against carmine spider mite (carmine spider mite; [2]): 100% | control against carmine spider mite (carmine spider mite; [5]): 100% | control (test results against diamond back moth) (Diamond back moth; [5]): 100% | protectant activity against wheat powdery mildew in vivo (wheat powdery mildew): 100% | Insecticidal activity against peach aphid (%) ([1]; 1.25 mg/L, contrastive test): 60% | control (test results against green peach aphid) ([1]; 5 ppm, death rate after 48 hrs): 100% | control (test results against green peach aphid) [1, 6]: 100% | control (test results against green peach aphid) [1, 3]: 100% | control (test results against green peach aphid) [1, 4]: 100% | pest or weed control at 2.5 µg/mL ([1]; Myzus persicae, foliar, 48 h, 2.5 mg/L, contrastive test, read-out: Insecticidal activity against peach aphid (%)): 93% | pest or weed control at 5 µg/mL ([1]; Myzus persicae, foliar, 48 h, 5 mg/L, contrastive test, read-out: Insecticidal activity against peach aphid (%)): 100% | pest or weed control at 10 µg/mL ([1]; Myzus persicae, foliar, 48 h, 10 mg/L, contrastive test, read-out: Insecticidal activity against peach aphid (%)): 100% | pest or weed control at 100 µg/mL ([1]; Myzus persicae, foliar, 48 h, 100 mg/L, contrastive test, read-out: Insecticidal activity against peach aphid (%)): 100% | pest or weed control at 600 µg/mL ([1]; Myzus persicae, foliar, 48 h, 600 mg/L, contrastive test, read-out: Insecticidal activity against peach aphid (%)): 100% | protectant activity against corn rust in vivo (corn rust; 100 ppm): 100% | protectant activity against corn rust in vivo (corn rust; 400 ppm): 100%

Cc1ncnc(NCCc2ccc(Oc3ccc(C(F)(F)F)cn3)cc2)c1Cl [Compound I-6733]
control (test results against armyworm) (armyworm): 100% | control against carmine spider mite (carmine spider mite; [2]): 100% | control against carmine spider mite (carmine spider mite; [5]): 100% | Insecticidal activity against diamond back moth (%) (Diamond back moth; 10 mg/L): 40% | Insecticidal activity against diamond back moth (%) (Diamond back moth; 100 mg/L): 68% | Insecticidal activity against diamond back moth (%) (Diamond back moth; 600 mg/L): 100% | control (test results against diamond back moth) (Diamond back moth; [5]): 100% | protectant activity against wheat powdery mildew in vivo (wheat powdery mildew): 100% | control (test results against green peach aphid) [1, 6]: 100% | control (test results against green peach aphid) [1, 3]: 100% | control (test results against green peach aphid) [1, 4]: 100% | protectant activity against corn rust in vivo (corn rust; 100 ppm): 100% | protectant activity against corn rust in vivo (corn rust; 400 ppm): 100%

Cc1ncnc(NCCc2ccc(Oc3ccc(C(F)(F)F)cn3)cc2)c1Cl [Compound I-6734]
control (test results against armyworm) (armyworm): 100% | Insecticidal activity against carmine spider mite (% ) (carmine spider mite; 2.5 mg/L): 51% | Insecticidal activity against carmine spider mite (% ) (carmine spider mite; 5 mg/L): 57% | Insecticidal activity against carmine spider mite (% ) (carmine spider mite; 10 mg/L, contrastive test): 82% | Insecticidal activity against carmine spider mite (% ) (carmine spider mite; 100 mg/L, contrastive test): 100% | Insecticidal activity against carmine spider mite (% ) (carmine spider mite; 600 mg/L, contrastive test): 100% | control against carmine spider mite (carmine spider mite; [2]): 100% | control against carmine spider mite (carmine spider mite; [5]): 100% | control (test results against diamond back moth) (Diamond back moth; [5]): 100% | pest or weed control at 10 µg/mL (Diamond back moth; 72 h, 10 mg/L): 40% | pest or weed control at 100 µg/mL (Diamond back moth; 72 h, 100 mg/L): 52% | pest or weed control at 600 µg/mL (Diamond back moth; 72 h, 600 mg/L): 100% | protectant activity against wheat powdery mildew in vivo (wheat powdery mildew): 100% | control (test results against green peach aphid) [1, 6]: 100% | control (test results against green peach aphid) [1, 3]: 100% | control (test results against green peach aphid) [1, 4]: 100% | protectant activity against corn rust in vivo (corn rust; 100 ppm): 100% | protectant activity against corn rust in vivo (corn rust; 400 ppm): 100%

Cc1ncnc(NCCc2ccc(Oc3ccc(C(F)(F)F)cn3)cc2)c1Cl [Compound I-6735]
control (test results against armyworm) (armyworm): 100% | control against carmine spider mite (carmine spider mite; [2]): 100% | control against carmine spider mite (carmine spider mite; [5]): 100% | control (test results against diamond back moth) (Diamond back moth; [5]): 100% | protectant activity against wheat powdery mildew in vivo (wheat powdery mildew): 100% | Insecticidal activity against peach aphid (%) ([1]; 1.25 mg/L, contrastive test): 67% | Insecticidal activity against peach aphid (%) ([1]; 2.5 mg/L, contrastive test): 80% | Insecticidal activity against peach aphid (%) ([1]; 5 mg/L, contrastive test): 100% | Insecticidal activity against peach aphid (%) ([1]; 10 mg/L, contrastive test): 100% | Insecticidal activity against peach aphid (%) ([1]; 100 mg/L, contrastive test): 100% | Insecticidal activity against peach aphid (%) ([1]; 600 mg/L, contrastive test): 100% | control (test results against green peach aphid) ([1]; 5 ppm, death rate after 48 hrs): 100% | control (test results against green peach aphid) [1, 6]: 100% | control (test results against green peach aphid) [1, 3]: 100% | control (test results against green peach aphid) [1, 4]: 100% | protectant activity against corn rust in vivo (corn rust; 100 ppm): 100% | protectant activity against corn rust in vivo (corn rust; 400 ppm): 100%
